The text below walks through data of patent US5770604A, “Aconitine compound and an antipyretic/analgesic/anti-inflammatory agent” (priority 1994, dated 1998).

Holding throughout (format): in vivo, mice (Std:ddY, male)
The test system of experiment [1] is pain threshold (tail-pressure). Nature of the experiment: Tail-pressure method, comparison with morphine (i.v.). To be noted: for Inhibition rate: mean ± standard error. On the procedure:
(2) Comparison with Morphine
Std:ddY Strain male mice (20-25 g) were fasted for one day before the experiment, and were used. In this experiment, the tartaric acid salt of a compound of number (2) in Table 1 and morphine hydrochloride as a possitive control were used. This tartaric acid salt was dissolved in 0.9% physiological saline solution at the rates of 5 mg/2 ml, 3 mg/2 ml and 1 mg/2 ml. Morphine hydrochloride was dissolved in 0.9% physiological saline solution at the rates of 5 mg/2 ml, 3 mg/2 ml and 1 mg/2 ml. As a negative control, 0.9% phisiological saline solution was used. A tail-pressure apparatus was used in this experiments. Before the administration of test compounds, the pain threshold was measured twice at intervals of 30 minutes and those mice indicating a pain threshold of 50 to 100 mmHg were selected and used. The pain threshold of each mouse was measured at 10, 20 and 30 minutes after test compound solution mentioned above was administered at 2 ml/kg, i.v. 0.9% Physiological saline solution as a control was administered i.v. The results were described as an inhibition rate (%) indicating in the preceding paragraph (1).

Experiment [2] concerns carrageenin-induced paw edema. Nature of the experiment: Antiinflammatory activity by the carrageenin-induced hind paw edema. To be noted: mouse, 30 mg/kg p.o., mean ± standard error, n = 6. As to the method:
Measurement of Antiinflammatory Activity by the Carrageenin-Induced Hind Paw Edema
Std:ddY Strain male mice (20-25 g) were fasted for one day before the experiment, and were used. After test compounds shown in Table 1 was formed to a salt with tartaric acid, this salt was dissolved in sterilized and distilled water at the rate of 30 mg/10 ml to give the test compound solution. As a control, sterilized and distilled water was used. One hour after the oral administration of test compound solutions, 25 μl of λ-carrageenin suspended in 0.9% physiological saline solution (0.5 mg/25 μl) was injected s.c. under the plantar surface of the right hind paw of a mouse and 25 μl of 0.9% physiological saline solution was injected s.c. under the plantar surface of the left hind paw of the same mouse. Three hours and five hours after carrageenin injection, the […] of the paw was measured with a dial gauge calliper. To the control group, One hour after the oral administration of sterilized and distilled water at the rate of 10 ml/kg, 25 μl of λ-carrageenin (0.5 mg/25 μl) suspended in 0.9% physiological saline solution was injected s.c. under the plantar surface of the right hind paw of a mouse and 25 μl of 0.9% physiological saline solution was injected s.c. under the plantar surface of the left hind paw of the same mouse and the later operation was done in the same manner as in the test compound dosing group mentioned above. The results were described as a swelling rate (%) obtained from the following equation.
Swelling rate (%)=(R-L)×100/L
R: the thickness of the right hind paw
L: the thickness of the left hind paw
(In general: Carrageenan injected into the paw causes an acute inflammation.)

The subject of experiment [3] is pain threshold (tail-pressure). The experiment is described as follows: Tail-pressure method, experiment combined with morphine antagonist (levallorphan). To be noted: 10 mg/kg i.v., mean ± standard error. As to the method:
(4) Experiment Combined with Morphine Antagonist
Std:ddY Strain male mice (20-25 g) were fasted for one day before the experiment, and were used. In this experiment, the tartaric acid salt of a compound of number (2) in Table 1, morphine hydrochloride and levallorphan hydrochloride of an opioid antagonist were used. The tartaric acid salt of a compound of number (2) was dissolved in 0.9% physiological saline solution at the rate of 10 mg/2 ml. Morphine hydrochloride was dissolved in 0.9% physiological saline solution at the rate of 10 mg/2 ml. Levallorphan hydrochloride was dissolved in 0.9% physiological saline solution at the rate of 1 mg/10 ml. As a control, 0.9% physiological saline solution was used. A tail-pressure apparatus was used in this experiments. Before the administration of levallorphan hydrochloride, the pain threshold was measured twice at intervals of 30 minutes and those mice indicating a pain threshold of 50 to 100 mmHg were selected and used. Levallorphan hydrochloride solution mentioned above was administered s.c. at the rate of 10 ml/kg and, 30 minutes later, the above tartaric acid salt solution compound of number (2) or morphine hydrochloride solution was injected i.v. at the rate of 2 ml/kg, respectively. Each pain threshold was measured 10, 20 and 30 minutes after an intravenous injection. In control group, 0.9% physiological saline solution was injected i.v. at the rate of 2 ml/kg at 30 minutes after s.c. administration at 10 ml/kg of 0.9% physiological saline solution. In the single administration group of levallorphan hydrochloride, levallorphan hydrochloride solution mentioned above was administered s.c. at the rate of 10 ml/kg and, 30 minutes later, 0.9% physiological saline solution was injected i.v. at the rate of 2 ml/kg. The results were described in Table 10 as an inhibition rate (%) indicating in the preceding paragraph (1).

Experiment [4] deals with pain threshold (tail-pressure). The experiment is described as follows: Analgesic activity by the tail-pressure method (s.c.). To be noted: mouse, 10 mg/10 ml at 10 ml/kg s.c., 1 hour after administration, mean ± standard error. As to the method:
(1) Measurement of Analgesic Activity by the Tail-Pressure Method
Std:ddY Strain male mice (20-25 g) were fasted for one day before the experiment, and were used. After test compounds shown in Table 1 was formed to a salt with tartaric acid, this salt was dissolved in 0.9% physiological saline solutions at the rate of 10 mg/10 ml to give the test compoun d solution . As a control, 0.9% physiological saline solution was used. A tail-pressure apparatus was used in this experiments. Before the administration of test compounds, the pain threshold was measured twice at intervals of 30 minutes and those mice indicating a pain threshold of 50 to 100 mmHg were selected and used. The pain threshold of each mouse was measured at 1 hour after test compound solution mentioned above was administered at 10 ml/kg, s.c. 0.9% Physiological saline solution as a control was administered at 10 ml/kg, s.c . The results were described as an inhibition rate (%) obtained from the following equation. Cutoff level of pressure was defined to be 230 mmHg for the prevention of the damage of mouse tail.
Inhibition rate (%)=(A-B)×100/(C-B)
A: Pain threshold (mmHg) after the administration of test compound solution
B: Pain threshold (mmHg) before the administration of test compound solution
C: Cutoff pressure (230 mmHg)

`CCN1CC2(COC)C(O)CC(OC)C34C5CC6(O)C(OC)C(OC(C)=O)C(O)(C5C6OC(=O)c5ccc(Cl)cc5)C(C(OC)C23)C14` (stereo not shown) [(2), 15-O-acetyl-14-O-p-chlorobenzoylaconine]: the Inhibition rate in experiment [1] (1 mg/kg i.v., 10 minutes) is on record as 5 ± 4%; in experiment [1] (1 mg/kg i.v., 20 minutes), 4 ± 4%; in experiment [1] (1 mg/kg i.v., 30 minutes), 2 ± 3%; in experiment [1] (3 mg/kg i.v., 10 minutes), 14 ± 15%; in experiment [1] (3 mg/kg i.v., 20 minutes) it was 16 ± 10%; in experiment [1] (3 mg/kg i.v., 30 minutes), 12 ± 12%. Moreover, the Inhibition rate is on record as 38 ± 13% in experiment [1] (5 mg/kg i.v., 10 minutes); 27 ± 6% in experiment [1] (5 mg/kg i.v., 20 minutes); 22 ± 7% in experiment [1] (5 mg/kg i.v., 30 minutes); 86 ± 25% in experiment [3] (with levallorphan 1 mg/kg s.c. 30 minutes before, 10 min); 77 ± 14% in experiment [3] (with levallorphan 1 mg/kg s.c. 30 minutes before, 20 min); 67 ± 22% in experiment [3] (with levallorphan 1 mg/kg s.c. 30 minutes before, 30 min). The Inhibition rate in experiment [3] (without levallorphan, 10 min) was determined as 85 ± 15%; in experiment [3] (without levallorphan, 20 min), 80 ± 20%; in experiment [3] (without levallorphan, 30 min), 65 ± 21%. The “analgesic activity compared with morphine, in words” value in experiment [1] (mouse, i.v.) is listed as “had an equal analgesic activity in its strength to morphine”. For the same compound, the Swelling rate in experiment [2] (3 hour) is recorded as 40 ± 9%; in experiment [2] (5 hour), 46 ± 9%. The “Inhibition rate (tail-pressure method)” value in experiment [4] worked out at 43 ± 10%.
